Results reported in PubChem BioAssay (NCI).
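How tested: cells in 96-well plates exposed to compound for 48 hours at five concentrations. TGI denotes the concentration required for complete inhibition of growth.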

Assays:
Experiment in all cases: NCI anticancer screen, dose series, 48 h
[1] = system: CAKI-1 renal
[2] = system: SK-MEL-5 melanoma
[3] = system: TK-10 renal
[4] = system: A498 renal
[5] = system: SK-OV-3 ovarian
[6] = system: SNB-75 CNS
[7] = system: COLO 205 colon
[8] = system: SF-268 CNS
[9] = system: HCT-15 colon
[10] = system: HCC-2998 colon
[11] = system: NCI-H23 lung
[12] = system: OVCAR-4 ovarian
[13] = system: CCRF-CEM leukemia
[14] = system: 786-0 renal
[15] = system: M14 melanoma
[16] = system: SR leukemia
[17] = system: RXF 393 renal
[18] = system: SN12C renal
[19] = system: EKVX NSCLC
[20] = system: MALME-3M melanoma
[21] = system: OVCAR-8 ovarian
[22] = system: HCT-116 colon
[23] = system: A549 NSCLC
[24] = system: HOP-92 NSCLC
[25] = system: NCI-H460 lung
[26] = system: IGROV1 ovarian
[27] = system: SK-MEL-2 melanoma
[28] = system: K-562 leukemia
[29] = system: KM12 colon
[30] = system: UO-31 renal
[31] = system: MDA-N
[32] = system: MDA-MB-231 breast
[33] = system: HL-60(TB) leukemia
[34] = system: NCI-H226 lung
[35] = system: SF-539 CNS
[36] = system: SW-620 colon
[37] = system: T-47D breast
[38] = system: UACC-257 melanoma
[39] = system: BT-549 breast
[40] = system: HOP-62 NSCLC
[41] = system: MDA-MB-435
[42] = system: HS 578T breast
[43] = system: NCI-H522 lung
[44] = system: UACC-62 melanoma
[45] = system: DU-145 prostate
[46] = system: U251 CNS
[47] = system: LOX IMVI melanoma
[48] = system: OVCAR-3 ovarian
[49] = system: SNB-19 CNS
[50] = system: NCI/ADR-RES ovarian
[51] = system: SF-295 CNS
[52] = system: MOLT-4 leukemia
[53] = system: HT29 colon
[54] = system: PC-3 prostate
[55] = system: SK-MEL-28 melanoma
[56] = system: MCF7 breast
[57] = system: ACHN renal
[58] = system: OVCAR-5 ovarian
[59] = system: RPMI-8226 leukemia

O=C1Nc2ccccc2C1=Nc1ccc(S(=O)(=O)Nc2nccs2)cc1
TGI [1]: > 100 µM | TGI [2]: > 100 µM | TGI [3]: > 100 µM | TGI [4]: > 100 µM | TGI [5]: > 100 µM | TGI [6]: > 100 µM | TGI [7]: > 100 µM | TGI [8]: > 100 µM | TGI [9]: > 100 µM | TGI [10]: > 100 µM | TGI [11]: > 100 µM | TGI [12]: > 100 µM | TGI [13]: > 100 µM | TGI [14]: > 100 µM | TGI [15]: > 100 µM | TGI [16]: > 100 µM | TGI [17]: > 100 µM | TGI [18]: > 100 µM | TGI [19]: > 100 µM | TGI [20]: > 100 µM | TGI [21]: > 100 µM | TGI [22]: > 100 µM | TGI [23]: > 100 µM | TGI [24]: > 100 µM | TGI [25]: > 100 µM | TGI [26]: > 100 µM | TGI [27]: > 100 µM | TGI [28]: > 100 µM | TGI [29]: > 100 µM | TGI [30]: > 100 µM | TGI [31]: > 100 µM | TGI [32]: > 100 µM | TGI [33]: > 100 µM | TGI [34]: > 100 µM | TGI [35]: > 100 µM | TGI [36]: > 100 µM | TGI [37]: > 100 µM | TGI [38]: > 100 µM | TGI [39]: > 100 µM | TGI [40]: > 100 µM | TGI [41]: > 100 µM | TGI [42]: > 100 µM | TGI [43]: > 100 µM | TGI [44]: > 100 µM | TGI [45]: > 100 µM | TGI [46]: > 100 µM | TGI [47]: > 100 µM | TGI [48]: > 100 µM | TGI [49]: > 100 µM | TGI [50]: > 100 µM | TGI [51]: > 100 µM | TGI [52]: > 100 µM | TGI [53]: > 100 µM | TGI [54]: > 100 µM | TGI [55]: > 100 µM | TGI [56]: > 100 µM | TGI [57]: > 100 µM | TGI [58]: > 100 µM

C/C(=N\O)c1ccc(Nc2nc3ccccc3c3occc23)cc1
TGI [1]: 7.28 µM | TGI [2]: 35.1 µM | TGI [3]: 7.63 µM | TGI [4]: 37.8 µM | TGI [5]: 57.4 µM | TGI [59]: 6.62 µM | TGI [7]: 20 µM | TGI [8]: 39.9 µM | TGI [9]: 7.77 µM | TGI [10]: 20.8 µM | TGI [11]: 62.4 µM | TGI [13]: 27.7 µM | TGI [14]: 9.93 µM | TGI [15]: 22.4 µM | TGI [16]: 5.07 µM | TGI [18]: 56.3 µM | TGI [19]: > 100 µM | TGI [20]: 61.3 µM | TGI [21]: 54.7 µM | TGI [22]: 18 µM | TGI [23]: 34.8 µM | TGI [24]: 52.4 µM | TGI [25]: 4.34 µM | TGI [26]: 29.6 µM | TGI [27]: 51.5 µM | TGI [28]: 6.04 µM | TGI [29]: 20.8 µM | TGI [30]: > 100 µM | TGI [31]: 96.6 µM | TGI [32]: 8.22 µM | TGI [33]: 8.49 µM | TGI [34]: 10.8 µM | TGI [35]: 37.1 µM | TGI [37]: 32.7 µM | TGI [38]: 48.2 µM | TGI [39]: 53.1 µM | TGI [40]: 27 µM | TGI [41]: 44.9 µM | TGI [42]: 53.3 µM | TGI [43]: 9.47 µM | TGI [44]: 61 µM | TGI [45]: 35.6 µM | TGI [46]: > 100 µM | TGI [47]: 32.8 µM | TGI [48]: > 100 µM | TGI [49]: > 100 µM | TGI [50]: 47.8 µM | TGI [51]: 11.1 µM | TGI [52]: 13.6 µM | TGI [53]: 2.68 µM | TGI [54]: 50.7 µM | TGI [56]: 14.8 µM | TGI [57]: 47.7 µM | TGI [58]: > 100 µM

CSc1ncc2c(n1)-c1ccccc1OC2N1CCCCC1 (configuration not stated)
TGI [1]: 66.3 µM | TGI [2]: 45.8 µM | TGI [3]: 73.2 µM | TGI [4]: 49.9 µM | TGI [5]: > 100 µM | TGI [6]: > 100 µM | TGI [59]: 65.9 µM | TGI [7]: > 100 µM | TGI [8]: > 100 µM | TGI [9]: 84.5 µM | TGI [11]: > 100 µM | TGI [12]: > 100 µM | TGI [13]: 49.8 µM | TGI [14]: > 100 µM | TGI [15]: > 100 µM | TGI [16]: 53.2 µM | TGI [17]: > 100 µM | TGI [18]: > 100 µM | TGI [19]: > 100 µM | TGI [21]: > 100 µM | TGI [22]: > 100 µM | TGI [23]: > 100 µM | TGI [24]: 84.2 µM | TGI [25]: > 100 µM | TGI [26]: > 100 µM | TGI [27]: 96.6 µM | TGI [28]: > 100 µM | TGI [29]: > 100 µM | TGI [30]: > 100 µM | TGI [31]: > 100 µM | TGI [32]: > 100 µM | TGI [33]: 49 µM | TGI [34]: > 100 µM | TGI [35]: > 100 µM | TGI [36]: > 100 µM | TGI [37]: 68.2 µM | TGI [38]: > 100 µM | TGI [39]: 86.2 µM | TGI [41]: 87.2 µM | TGI [42]: 99.2 µM | TGI [43]: 42.3 µM | TGI [44]: > 100 µM | TGI [45]: > 100 µM | TGI [46]: > 100 µM | TGI [47]: 46.7 µM | TGI [48]: > 100 µM | TGI [49]: > 100 µM | TGI [50]: > 100 µM | TGI [51]: > 100 µM | TGI [52]: 58 µM | TGI [53]: > 100 µM | TGI [54]: > 100 µM | TGI [56]: 87.6 µM | TGI [57]: > 100 µM | TGI [58]: > 100 µM
